Here are results for three molecules from patent US6486322B1, “Azaindole derivatives, process for their preparation, and their use as antitumor agents” (Pharmacia Italia S.p.A., priority 2000, dated 2002).

In general, melting point refers to the temperature, or range, at which the solid turns liquid.

The molecule `NC(=O)C(=Cc1c[nH]c2ncccc12)c1ccccc1` [compound 299, 2-phenyl-3-(1H-pyrrolo[2,3-b]pyridin-3-yl)-2-propenamide] returned a melting point of 222 to 224 °C.
The figure for `O=C(O)C(=Cc1c[nH]c2ncccc12)c1ccccc1` [compound 300, 2-phenyl-3-(1H-pyrrolo[2,3-b]pyridin-3-yl)-2-propenoic acid] is greater than 230 °C; for `CCCCNC(=O)C(=Cc1c[nH]c2ncccc12)c1ccccc1` [compound 301, N-butyl-2-phenyl-3-(1H-pyrrolo[2,3-b]pyridin-3-yl)-2-propenamide] it is 177 to 179 °C (dec.).
